According to US12497365B2, “4-pyridinyl formamide compound or derivative thereof, preparation method therefor, herbicidal composition and use thereof” (Qingdao Kingagroot Chemical Compound Co., Ltd., priority 2019, dated 2025):

Tested on: Wheat
Assay: Crop selectivity in post-emergence stage
Format: in vivo
Settings: active ingredient 250 g/ha
Excerpt: (§1) The activity level criteria for plant damage (i.e., growth control rate) are as follows:
(§2) The above growth control rates are fresh weight control rates.
(§3) Experiment on weeding effect in post-emergence stage: monocotyledonous and dicotyledonous weed seeds and major crop seeds (wheat, corn, rice, soybean, cotton, oilseed rape, millet, sorghum) were placed in plastic pots filled with soil, then covered with 0.5-2 cm of soil, allowed to grow in a good greenhouse environment. After 2 weeks of sowing, the test plants were treated in the 2-3 leaf stage. The tested compounds of the present invention were respectively dissolved in acetone at the dosage of 2000, 1000, 500, 250, 125 g/ha, then added with Tween 80 and 1.5 liter/ha of emulsifiable concentrate of methyl oleate as synergist, diluted with a certain amount of water to obtain a solution with a certain concentration, and sprayed with a spray tower onto the plants. After the application, the plants were cultured for 3 weeks in the greenhouse, and then the experimental results were listed in Table 1.
(§4) In addition, under the active ingredient of 250 g/ha, many compounds also show good crop selectivity and excellent control effect on key weeds.

Row | Compound | Plant damage level (growth control rate), Wheat
1 | Cn1nnnc1NC(=O)c1ccnc(-c2ccccc2F)c1Cl [Compound 1-15] | 0 (Level 0: growth control rate is less than 5%)
2 | Cc1nonc1NC(=O)c1ccnc(C)c1Cl [Control compound A, reference compound] | 0 (Level 0: growth control rate is less than 5%)

Tested on: Amaranthus retroflexus L.
Assay: Weeding effect in post-emergence stage
Format: in vivo
Settings: active ingredient 2000 g/ha, 3 weeks after application, fresh weight control rate
Method in brief: (§5)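 Weeds sown in soil-filled pots under 0.5-2 cm cover were grown in a greenhouse and sprayed at the 2-3 leaf stage, 2 weeks after sowing. Compounds in acetone with Tween 80 and 1.5 liter/ha methyl oleate concentrate were applied at 2000, 1000, 500, 250 or 125 g/ha. Fresh weight control rate was scored after 3 weeks.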

Row | Compound | Weeding effect, activity level (growth control rate), Amaranthus retroflexus L.
3 | Cn1nnnc1NC(=O)c1ccnc(-c2ccccc2F)c1Cl [Compound 1-15] | 5 (Level 5: growth control rate is above 85%)
4 | CCCn1cc(-c2nccc(C(=O)Nc3nnnn3C)c2Cl)cn1 [Compound 1-173] | 5 (Level 5: growth control rate is above 85%)
5 | Cn1nnnc1NC(=O)c1ccnc(-c2ccc(F)c3ccccc23)c1Cl [Compound 1-113] | 5 (Level 5: growth control rate is above 85%)
6 | Cn1nnnc1NC(=O)c1ccnc(-c2ccccc2Cl)c1Cl [Compound 1-18] | 5 (Level 5: growth control rate is above 85%)
7 | Cn1nnnc1NC(=O)c1ccnc(-c2ccc(C(F)(F)F)cc2)c1Cl [Compound 1-27] | 5 (Level 5: growth control rate is above 85%)
8 | Cn1nnnc1NC(=O)c1ccnc(-c2cccc(OCc3ccccc3)c2)c1Cl [Compound 1-56] | 5 (Level 5: growth control rate is above 85%)
9 | Cn1nnnc1NC(=O)c1ccnc(-c2cc(C#N)ccc2F)c1Cl [Compound 1-82] | 5 (Level 5: growth control rate is above 85%)
10 | COC(=O)c1cc(-c2nccc(C(=O)Nc3nnnn3C)c2Cl)ccc1Cl [Compound 1-98] | 5 (Level 5: growth control rate is above 85%)
11 | Cn1nnnc1NC(=O)c1ccnc(-c2cc(F)cc(Cl)c2)c1Cl [Compound 1-90] | 5 (Level 5: growth control rate is above 85%)
12 | Cn1nnnc1NC(=O)c1ccnc(-c2ccn[nH]2)c1Cl [Compound 1-177] | 5 (Level 5: growth control rate is above 85%)
13 | COc1ccc(-c2nccc(C(=O)Nc3nnnn3C)c2Cl)c(Cl)c1 [Compound 1-102] | 5 (Level 5: growth control rate is above 85%)
14 | Cn1nnnc1NC(=O)c1ccnc(Nc2ccccc2)c1Cl [Compound 1-2075] | 5 (Level 5: growth control rate is above 85%)
15 | Cc1cncc(-c2nccc(C(=O)Nc3nnnn3C)c2Cl)c1 [Compound 1-126] | 5 (Level 5: growth control rate is above 85%)
16 | Cn1nnnc1NC(=O)c1ccnc(C(C)(C)C)c1Cl [Compound 1-2] | 5 (Level 5: growth control rate is above 85%)
17 | Cn1nnnc1NC(=O)c1ccnc(-c2ccccc2)c1Cl [Compound 1-8] | 5 (Level 5: growth control rate is above 85%)
18 | Cn1nnnc1NC(=O)c1ccnc(C2=CCCCC2)c1Cl [Compound 1-5] | 5 (Level 5: growth control rate is above 85%)

Tested on: Abutilon theophrasti
Assay: Weeding effect in post-emergence stage
Format: in vivo
Settings: active ingredient 2000 g/ha, 3 weeks after application, fresh weight control rate
Method in brief: as §5

Row | Compound | Weeding effect, activity level (growth control rate), Abutilon theophrasti
19 | Cn1nnnc1NC(=O)c1ccnc(-c2ccccc2F)c1Cl [Compound 1-15] | 5 (Level 5: growth control rate is above 85%)
20 | CCCn1cc(-c2nccc(C(=O)Nc3nnnn3C)c2Cl)cn1 [Compound 1-173] | 5 (Level 5: growth control rate is above 85%)
21 | Cn1nnnc1NC(=O)c1ccnc(-c2ccc(F)c3ccccc23)c1Cl [Compound 1-113] | 5 (Level 5: growth control rate is above 85%)
22 | Cn1nnnc1NC(=O)c1ccnc(-c2ccccc2Cl)c1Cl [Compound 1-18] | 5 (Level 5: growth control rate is above 85%)
23 | Cn1nnnc1NC(=O)c1ccnc(-c2ccc(C(F)(F)F)cc2)c1Cl [Compound 1-27] | 5 (Level 5: growth control rate is above 85%)
24 | Cn1nnnc1NC(=O)c1ccnc(-c2cccc(OCc3ccccc3)c2)c1Cl [Compound 1-56] | 5 (Level 5: growth control rate is above 85%)
25 | Cn1nnnc1NC(=O)c1ccnc(-c2cc(C#N)ccc2F)c1Cl [Compound 1-82] | 5 (Level 5: growth control rate is above 85%)
26 | COC(=O)c1cc(-c2nccc(C(=O)Nc3nnnn3C)c2Cl)ccc1Cl [Compound 1-98] | 5 (Level 5: growth control rate is above 85%)
27 | Cn1nnnc1NC(=O)c1ccnc(-c2cc(F)cc(Cl)c2)c1Cl [Compound 1-90] | 5 (Level 5: growth control rate is above 85%)
28 | Cn1nnnc1NC(=O)c1ccnc(-c2ccn[nH]2)c1Cl [Compound 1-177] | 5 (Level 5: growth control rate is above 85%)
29 | COc1ccc(-c2nccc(C(=O)Nc3nnnn3C)c2Cl)c(Cl)c1 [Compound 1-102] | 5 (Level 5: growth control rate is above 85%)
30 | Cn1nnnc1NC(=O)c1ccnc(Nc2ccccc2)c1Cl [Compound 1-2075] | 5 (Level 5: growth control rate is above 85%)
31 | Cc1cncc(-c2nccc(C(=O)Nc3nnnn3C)c2Cl)c1 [Compound 1-126] | 5 (Level 5: growth control rate is above 85%)
32 | Cn1nnnc1NC(=O)c1ccnc(C(C)(C)C)c1Cl [Compound 1-2] | 5 (Level 5: growth control rate is above 85%)
33 | Cn1nnnc1NC(=O)c1ccnc(-c2ccccc2)c1Cl [Compound 1-8] | 5 (Level 5: growth control rate is above 85%)
34 | Cn1nnnc1NC(=O)c1ccnc(C2=CCCCC2)c1Cl [Compound 1-5] | 5 (Level 5: growth control rate is above 85%)

Tested on: Chenopodium album
Assay: Weeding effect in post-emergence stage
Format: in vivo
Settings: active ingredient 2000 g/ha, 3 weeks after application, fresh weight control rate
Method in brief: as §5

Row | Compound | Weeding effect, activity level (growth control rate), Chenopodium album
35 | Cn1nnnc1NC(=O)c1ccnc(-c2ccccc2F)c1Cl [Compound 1-15] | 5 (Level 5: growth control rate is above 85%)
36 | CCCn1cc(-c2nccc(C(=O)Nc3nnnn3C)c2Cl)cn1 [Compound 1-173] | 5 (Level 5: growth control rate is above 85%)
37 | Cn1nnnc1NC(=O)c1ccnc(-c2ccc(F)c3ccccc23)c1Cl [Compound 1-113] | 5 (Level 5: growth control rate is above 85%)
38 | Cn1nnnc1NC(=O)c1ccnc(-c2ccccc2Cl)c1Cl [Compound 1-18] | 5 (Level 5: growth control rate is above 85%)
39 | Cn1nnnc1NC(=O)c1ccnc(-c2ccc(C(F)(F)F)cc2)c1Cl [Compound 1-27] | 5 (Level 5: growth control rate is above 85%)
40 | Cn1nnnc1NC(=O)c1ccnc(-c2cccc(OCc3ccccc3)c2)c1Cl [Compound 1-56] | 5 (Level 5: growth control rate is above 85%)
41 | Cn1nnnc1NC(=O)c1ccnc(-c2cc(C#N)ccc2F)c1Cl [Compound 1-82] | 5 (Level 5: growth control rate is above 85%)
42 | COC(=O)c1cc(-c2nccc(C(=O)Nc3nnnn3C)c2Cl)ccc1Cl [Compound 1-98] | 5 (Level 5: growth control rate is above 85%)
43 | Cn1nnnc1NC(=O)c1ccnc(-c2cc(F)cc(Cl)c2)c1Cl [Compound 1-90] | 5 (Level 5: growth control rate is above 85%)
44 | Cn1nnnc1NC(=O)c1ccnc(-c2ccn[nH]2)c1Cl [Compound 1-177] | 5 (Level 5: growth control rate is above 85%)
45 | COc1ccc(-c2nccc(C(=O)Nc3nnnn3C)c2Cl)c(Cl)c1 [Compound 1-102] | 5 (Level 5: growth control rate is above 85%)
46 | Cn1nnnc1NC(=O)c1ccnc(Nc2ccccc2)c1Cl [Compound 1-2075] | 5 (Level 5: growth control rate is above 85%)
47 | Cc1cncc(-c2nccc(C(=O)Nc3nnnn3C)c2Cl)c1 [Compound 1-126] | 5 (Level 5: growth control rate is above 85%)
48 | Cn1nnnc1NC(=O)c1ccnc(C(C)(C)C)c1Cl [Compound 1-2] | 5 (Level 5: growth control rate is above 85%)
49 | Cn1nnnc1NC(=O)c1ccnc(-c2ccccc2)c1Cl [Compound 1-8] | 5 (Level 5: growth control rate is above 85%)
50 | Cn1nnnc1NC(=O)c1ccnc(C2=CCCCC2)c1Cl [Compound 1-5] | 5 (Level 5: growth control rate is above 85%)

Tested on: Descurainia sophia
Assay: Weeding effect in post-emergence stage
Format: in vivo
Settings: active ingredient 250 g/ha
Method in brief: as §5

Row | Compound | Activity level (growth control rate), Descurainia sophia
51 | Cn1nnnc1NC(=O)c1ccnc(-c2ccccc2F)c1Cl [Compound 1-15] | 5 (Level 5: growth control rate is above 85%)
52 | Cc1nonc1NC(=O)c1ccnc(C)c1Cl [Control compound A, reference compound] | 0 (Level 0: growth control rate is less than 5%)

Same assay, conditions: active ingredient 2000 g/ha, 3 weeks after application, fresh weight control rate

Row | Compound | Weeding effect, activity level (growth control rate), Descurainia sophia
53 | Cn1nnnc1NC(=O)c1ccnc(-c2ccccc2F)c1Cl [Compound 1-15] | 5 (Level 5: growth control rate is above 85%)
54 | CCCn1cc(-c2nccc(C(=O)Nc3nnnn3C)c2Cl)cn1 [Compound 1-173] | 5 (Level 5: growth control rate is above 85%)
55 | Cn1nnnc1NC(=O)c1ccnc(-c2ccc(F)c3ccccc23)c1Cl [Compound 1-113] | 5 (Level 5: growth control rate is above 85%)
56 | Cn1nnnc1NC(=O)c1ccnc(-c2ccccc2Cl)c1Cl [Compound 1-18] | 5 (Level 5: growth control rate is above 85%)
57 | Cn1nnnc1NC(=O)c1ccnc(-c2ccc(C(F)(F)F)cc2)c1Cl [Compound 1-27] | 5 (Level 5: growth control rate is above 85%)
58 | Cn1nnnc1NC(=O)c1ccnc(-c2cccc(OCc3ccccc3)c2)c1Cl [Compound 1-56] | 5 (Level 5: growth control rate is above 85%)
59 | Cn1nnnc1NC(=O)c1ccnc(-c2cc(C#N)ccc2F)c1Cl [Compound 1-82] | 5 (Level 5: growth control rate is above 85%)
60 | COC(=O)c1cc(-c2nccc(C(=O)Nc3nnnn3C)c2Cl)ccc1Cl [Compound 1-98] | 5 (Level 5: growth control rate is above 85%)
61 | Cn1nnnc1NC(=O)c1ccnc(-c2cc(F)cc(Cl)c2)c1Cl [Compound 1-90] | 5 (Level 5: growth control rate is above 85%)
62 | Cn1nnnc1NC(=O)c1ccnc(-c2ccn[nH]2)c1Cl [Compound 1-177] | 5 (Level 5: growth control rate is above 85%)
63 | COc1ccc(-c2nccc(C(=O)Nc3nnnn3C)c2Cl)c(Cl)c1 [Compound 1-102] | 5 (Level 5: growth control rate is above 85%)
64 | Cn1nnnc1NC(=O)c1ccnc(Nc2ccccc2)c1Cl [Compound 1-2075] | 5 (Level 5: growth control rate is above 85%)
65 | Cc1cncc(-c2nccc(C(=O)Nc3nnnn3C)c2Cl)c1 [Compound 1-126] | 5 (Level 5: growth control rate is above 85%)
66 | Cn1nnnc1NC(=O)c1ccnc(C(C)(C)C)c1Cl [Compound 1-2] | 5 (Level 5: growth control rate is above 85%)
67 | Cn1nnnc1NC(=O)c1ccnc(-c2ccccc2)c1Cl [Compound 1-8] | 5 (Level 5: growth control rate is above 85%)
68 | Cn1nnnc1NC(=O)c1ccnc(C2=CCCCC2)c1Cl [Compound 1-5] | 5 (Level 5: growth control rate is above 85%)

Tested on: Beckmannia syzigachne
Assay: Weeding effect in post-emergence stage
Format: in vivo
Settings: active ingredient 250 g/ha
Excerpt: as §1, §2, §3, §4

Row | Compound | Activity level (growth control rate), Beckmannia syzigachne
69 | Cn1nnnc1NC(=O)c1ccnc(-c2ccccc2F)c1Cl [Compound 1-15] | 5 (Level 5: growth control rate is above 85%)
70 | Cc1nonc1NC(=O)c1ccnc(C)c1Cl [Control compound A, reference compound] | 0 (Level 0: growth control rate is less than 5%)

Tested on: Alopecurus aequalis
Assay: Weeding effect in post-emergence stage
Format: in vivo
Settings: active ingredient 250 g/ha
Excerpt: as §1, §2, §3, §4

Row | Compound | Activity level (growth control rate), Alopecurus aequalis
71 | Cn1nnnc1NC(=O)c1ccnc(-c2ccccc2F)c1Cl [Compound 1-15] | 5 (Level 5: growth control rate is above 85%)
72 | Cc1nonc1NC(=O)c1ccnc(C)c1Cl [Control compound A, reference compound] | 0 (Level 0: growth control rate is less than 5%)

Tested on: Alopecurus myosuroides
Assay: Weeding effect in post-emergence stage
Format: in vivo
Settings: active ingredient 250 g/ha
Excerpt: as §1, §2, §3, §4

Row | Compound | Activity level (growth control rate), Alopecurus myosuroides
73 | Cn1nnnc1NC(=O)c1ccnc(-c2ccccc2F)c1Cl [Compound 1-15] | 5 (Level 5: growth control rate is above 85%)
74 | Cc1nonc1NC(=O)c1ccnc(C)c1Cl [Control compound A, reference compound] | 0 (Level 0: growth control rate is less than 5%)

Tested on: Sclerochloa dura
Assay: Weeding effect in post-emergence stage
Format: in vivo
Settings: active ingredient 250 g/ha
Excerpt: as §1, §2, §3, §4

Row | Compound | Activity level (growth control rate), Sclerochloa dura
75 | Cn1nnnc1NC(=O)c1ccnc(-c2ccccc2F)c1Cl [Compound 1-15] | 5 (Level 5: growth control rate is above 85%)
76 | Cc1nonc1NC(=O)c1ccnc(C)c1Cl [Control compound A, reference compound] | 0 (Level 0: growth control rate is less than 5%)
